Data taken from patent US10265374B2, “Occidiofungin formations and uses thereof” (MISSISSIPPI STATE UNIVERSITY, priority 2014, dated 2019).
Where two headings read alike, the source gives them in different places. Starred links: 1 amine or outer side, 2 acyl side, 3 side chain; linkers in the order of their positions; H or OH if unused. Positions of bridges follow the written chain, without caps; N, C: chain ends. Non-standard residues stand in square brackets, D forms with d. Residues, ends and D or L forms follow the SMILES beside them. ξ: configuration not given here. X1 = CCCCCCCCCCCC(OC1OCC(O)C(O)C1O)C(O)C(O)CC(CC(=O)[*:1])N[*:2]; ξTyr(βOH) = NC(C(=O)O)C(O)c1ccc(O)cc1; ξAsn(3ξ-OH) = NC(=O)C(O)C(N)C(=O)O; Dab = NCC[CH](N)C(=O)O

Tests used:
[1] = In vitro toxicity screening (CellTiter-Blue cell viability, 48 hours); assay type: cell-based, human; settings: human
Description: Cancer cell lines, OVCAR8 (Center for Cancer Research (OVAR.8; Sample ID 25)), SW1088 (ATCC-HTB-12), and Toledo (ATCC CRL-2631), and normal human neonatal dermal fibroblasts cell line (ATCC-PCS-201-010) were passaged and prepped as previously described (See References 15-17). OVCAR8, SW1088, and Toledo2631 are ovarian, brain, and B-cell lymphoma cancer cell lines, respectively. This panel of cell lines was chosen based, in part, on their being from very different cancer types in order to discern whether occidiofungin would have a broad spectrum activity towards cancer cell lines of vastly different parental organ/cell types. OVCAR8 cells are widely used in the field of cancer therapeutic research as a panel representative of ovarian cancer in screening experiments for identifying both ovarian-specific and non-specific (i.e., anti-neoplastic activity on multiple cancer cell types) therapeutic agents (See References 28-30). Similarly, SW1088 cells are widely used in the field of cancer therapeutic research as a panel representative of glioma (the most common brain cancer) in screening experiments for identifying both glioma-specific and non-specific therapeutic agents (See References 31-32). Toledo 2631 cells are derived from lymphoma cells, and are used in the field of cancer therapeutic research for identifying lymphoma-specific and non-specific therapeutic agents (See, e.g., Reference 33). […] Cell counts per plate were calculated to be approximately 50,000 cells/mL. A 10× stock solution of occidiofungin was prepared at 65 μM concentration in 10% dimethyl sulfoxide (DMSO). Two-fold serial dilutions on a 96 well plate were set up in triplicate with starting concentration of 6.5 μM and a final concentration of 3 nM. Bortezomib was used as a comparator for toxicity against human fibroblast and was serially diluted two-fold starting at a concentration of 5 μM and ending at 2.5 nM. Bortezomib is used clinically against myeloma and lymphoma cancers in patients refractory against other chemotherapeutics (See References 18, 19). Furthermore, bortezomib has shown efficacy against a variety of solid tumors and cancer cell lines, making this an appropriate comparison molecule in the panel of cell lines chosen (See References 34-35). The plates were then incubated at 37° C. in 5% CO2 for 48 hours. After 48 hours, cell viability was monitored using CellTiter-Blue (Promega) cell viability assay by measuring the fluorescence emission of a redox activated dye (579EX/584EM) using a POLARstar Omega microplate reader (BMG Labtech).

[2] = tested on: normal cells with lower metobolism; settings: cited from earlier work
[3] = Pharmacokinetics of occidiofungin in DOPC or DOPC:DPPG vesicles; assay type: in vivo, mice; settings: for half-life: female, BALB/c
Method: Entrapment of occidiofungin in vesicles was done using 1,2-Dioleoyl-sn-glycero-3-phosphocholine (DOPC) and 1,2-dipalmitoyl-sn-glycero-3-[phospho-rac-(3-lysyl(1-glycerol))] (DPPG) from Avanti polar lipids. Lipid cake formation and subsequent hydration was done according to the manufacturer's recommendation. Briefly, 20 mg/ml of DOPC in chloroform was placed in a glass beaker and dried by vacuum evaporation to remove the organic solvent. The lipid film formed was hydrated using a 1 μg/μl solution of occidiofungin in 1.5% (2-Hydroxypropyl)-β-cyclodextrin (Alfa Aesar), while maintaining the lipid concentration at 20 mg/ml and the solution was sonicated to form the vesicles. Similarly, DPPG was mixed with DOPC at a ratio of 9:1 (DOPC:DPPG) to make a homogenous lipid mixture at a concentration of 20 mg/ml and the same process of drying and hydration was repeated to make vesicles. Following vesicle formation, estimation of the amount of occidiofungin trapped inside each type of vesicle was done. The mixture containing free and vesicle trapped occidiofungin was passed through a gel filtration column containing Sephadex G-10 beads. The void volume (containing only the vesicle trapped occidiofungin) was collected and occidiofungin extracted using methanol (50% final concentration). Liquid chromatography was done on the extracted sample, and a standard and the concentration of occidiofungin in the extracted sample was estimated by a comparison of peak volumes.
Occidiofungin in DOPC and DOPC-DPPG, at a concentration of 2.5 mg/kg, with ˜1.25 mg/kg entrapped in vesicles, was administered to six female BALB/c mice respectively via intravenous administration. […] The mice were weighed prior to the start of the experiment and every 24 hours post injection (hpi).
Blood was drawn at time points 1 hpi, 3 hpi, 5 hpi, 7 hpi, 9 hpi, 12 hpi, 18 hpi, 24 hpi and 48 hpi. 15 μl of blood was drawn from the lateral saphenous vein of each mouse for the first three time points. Blood from three mice were pooled together and added to 5 μl of 6.4% citric acid to prevent coagulation. From the fourth time point, blood was drawn from the tail vein of the mice. Blood samples were spun down at 13000 rpm for 10 minutes to separate the plasma. The plasma and the blood pellet obtained were stored separately at −20° C. until analysis. The plasma samples were thawed and the occidiofungin was extracted using a final concentration of 50% methanol. The protein precipitate was spun down at 13000 rpm for 10 minutes and the supernatant was used for analysis. Liquid chromatography was done using Acclaim 120 C18 columns (Length: 150 mm; I.D: 2.1 mm; 5 μm) to purify the occidiofungin in the sample. The occidiofungin was then subjected to MS/MS. Fragmentation of the occidiofungin (parent mass 1200 and 1216 Da) was carried out and the fragment of 1068 and 1084 Da m/z, which corresponds to the occidiofungin molecule (A and B forms, respectively) without the xylose sugar, was used for quantification of occidiofungin. A calibration curve constructed using standard concentrations of occidiofungin in plasma was used to analyze the samples obtained from the mice for pharmacokinetics (See FIGS. 6A-6B & 7A-7B).

For `CC(C)C[C@H](NC(=O)[C@H](Cc1ccccc1)NC(=O)c1cnccn1)B(O)O` [Bortezomib, bortezomib, reference compound], the CC50 at 48 h [1] is given as 4.09 µM and the “toxicity in normal cells” value [2] is given as “micromolar range”.
Work on `CCCCCCCCCCCC(OC1OCC(O)C(O)C1O)C(O)C(O)CC1CC(=O)NC(CO)C(=O)NC(C(O)c2ccc(O)cc2)C(=O)NC(CCN)C(=O)NCC(=O)NC(CC(N)=O)C(=O)NC(CO)C(=O)NC(CC(N)=O)C(=O)N1` (stereo not drawn) [OCFIN-A] (S[ξTyr(βOH)][Dab]GNSN; linker N-C via X1; configuration not given here) yielded a half-life ([3]; mouse, in vivo, iv, 2.5 mg/kg) of 14.6 h and a ke1 ([3]; mouse, in vivo, iv, 2.5 mg/kg) of 0.0474 h⁻¹.
`CCCCCCCCCCCC(OC1OCC(O)C(O)C1O)C(O)C(O)CC1CC(=O)NC(CO)C(=O)NC(C(O)c2ccc(O)cc2)C(=O)NC(CCN)C(=O)NCC(=O)NC(CC(N)=O)C(=O)NC(CO)C(=O)NC(C(O)C(N)=O)C(=O)N1` (stereo not drawn) [OCFIN-B] (S[ξTyr(βOH)][Dab]GNS[ξAsn(3ξ-OH)]; linker N-C via X1; configuration not given here) gave a half-life ([3]; mouse, in vivo, iv, packaged in DOPC:DPPG (90:10) vesicles, 2.5 mg/kg i.v., mice, read-out: t½ (converted)) of 14.8 h and a ke1 ([3]; packaged in DOPC:DPPG (90:10) vesicles, 2.5 mg/kg i.v., mice) of 0.0467 h⁻¹.
